Each structure is given as a SMILES string. “And” between values parts separate entries of the source, which are not always exact repeats. Equal values may be shown once. The source made the active and inactive calls. No rule for the calls is given here. Some results are limits rather than exact numbers.

The target of the assay is Neurotensin receptor type 1 (Homo sapiens) (UniProt P30989). The experiment in a line: NTR1 agonists in analog series, SAR follow-up, imaging, image-based, set 3 (AID 602356). The note with it: NTR1 image-based agonist assay, cellular imaging.
Chain of Neurotensin receptor type 1 (Homo sapiens) (P30989 whole entry, looked up): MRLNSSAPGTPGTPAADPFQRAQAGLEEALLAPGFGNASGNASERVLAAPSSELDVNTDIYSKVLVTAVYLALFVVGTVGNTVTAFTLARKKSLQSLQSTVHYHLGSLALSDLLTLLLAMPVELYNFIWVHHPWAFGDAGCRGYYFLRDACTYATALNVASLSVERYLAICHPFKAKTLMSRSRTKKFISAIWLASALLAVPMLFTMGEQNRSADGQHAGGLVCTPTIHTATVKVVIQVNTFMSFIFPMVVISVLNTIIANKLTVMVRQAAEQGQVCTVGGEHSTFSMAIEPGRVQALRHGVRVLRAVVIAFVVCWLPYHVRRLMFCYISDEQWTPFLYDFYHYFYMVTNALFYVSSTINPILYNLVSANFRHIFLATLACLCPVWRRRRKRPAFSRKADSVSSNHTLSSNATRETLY
What is called EC50 is the concentration needed to bring the measured effect to its halfway point. In the case of `COc1cccc(OC)c1-c1nc(C(=O)O)cn1-c1ccncc1`, the EC50 is > 80 µM (inactive).

Regarding `COc1cc2c3nnc(-c4ccc(C)cc4)c-3cn(Cc3ccc(F)cc3)c2cc1OC`, the half-maximal effective concentration (EC50) was 6.4 µM. As for `COc1ccc(-c2nnc3c4ccccc4n(Cc4ccccc4)cc2-3)cc1`, the entry is “inactive”. To `COc1ccc2nc(C3CCC3)nc(N3CCN(c4ccccc4OC)CC3)c2c1` belongs 10 µM; to `Clc1ccc(-c2nnc3c4cc5c(cc4n(Cc4ccccc4)cc2-3)OCO5)cc1`, > 80 µM (inactive); to `COc1cc2ncnc(N3CCN(c4ccccc4OC)CC3)c2cc1OC`, > 80 µM (inactive). As for `COc1ccc2c(N3CCN(c4ccccc4OC)CC3)nc(C3CCC3)nc2c1`, the entry is “inactive”. Consider `c1ccc(Cn2cc3c(-c4ccccc4)nnc-3c3ccccc32)cc1`, for which the EC50 result is “inactive”. In the case of `COc1cc2nc(C3CCC3)nc(N3CCN(c4c(C)cccc4C)CC3)c2cc1OC`, the EC50 entry is “inactive”. To `COc1cc2nc(C3CC3)nc(N3CCN(c4ccccc4Cl)CC3)c2cc1OC` belongs 19.8 µM; to `Fc1ccc(Cn2cc3c(-c4ccc(F)cc4)nnc-3c3cc4c(cc32)OCO4)cc1`, 7.29 µM. To `COc1cc2c3nnc(-c4ccc(F)cc4)c-3cn(Cc3cccc(C)c3)c2cc1OC` belongs 6.34 µM and 6.55 µM; to `COc1cc2nc(C)nc(N3CCN(c4ccccc4OC)CC3)c2cc1OC`, > 80 µM (inactive); to `CCOc1cc2c(N3CCN(c4ccccc4OC)CC3)nc(-c3ccc(OC)c(OC)c3)nc2cc1OC`, > 80 µM (inactive).

With `COc1ccc(-c2nnc3c4ccccc4n(Cc4ccc(OC(F)(F)F)cc4)cc2-3)cc1`, the EC50 result was “inactive”. Turning to `COc1ccc(-c2nnc3c4ccccc4n(Cc4ccc(Cl)cc4)cc2-3)cc1`, the EC50 result was “inactive”. As for `Cc1ccc(Cn2cc3c(-c4ccc(F)cc4)nnc-3c3ccccc32)cc1`, the figure is > 80 µM (inactive).

As to `Cc1ccc(-c2nnc3c4cc5c(cc4n(Cc4ccccc4)cc2-3)OCO5)cc1C`, the EC50 was 1.44 µM.

In the case of `COc1cc2nc(C3CCC3)nc(N3CCN(c4ccccc4)CC3)c2cc1OC`, the EC50 was 12.1 µM. As for `COc1ccc2c3nnc(-c4ccc(C)cc4)c-3cn(Cc3ccc(C)cc3)c2c1`, the figure is 11.2 µM.

As to `CCOc1cc2nc(-c3ccc(OC)c(OC)c3)nc(N3CCN(c4ccccc4F)CC3)c2cc1OC`, the EC50 was > 80 µM (inactive). For the compound `COc1cc2c3nnc(-c4ccc(F)cc4)c-3cn(Cc3cccnc3)c2cc1OC`, the EC50 was > 80 µM (inactive). In the case of `COc1cc2nc(CCN3CCN(c4ccccc4OC)CC3)nc(N3CCN(c4ccccc4OC)CC3)c2cc1OC`, the EC50 result is “inactive”.

As for `Cc1ccc(Cn2cc3c(-c4ccc(C)c(C)c4)nnc-3c3cc4c(cc32)OCO4)cc1`, the EC50 is 16.4 µM. To `C=Cc1nc(N2CCN(c3ccccc3OC)CC2)c2cc(OC)c(OC)cc2n1` belongs 7.03 µM.

Consider `COc1ccccc1-c1nc(C(=O)N[C@@H](CC(C)C)C(=O)O)cn1-c1ccnc2ccccc12`, for which the EC50 is > 80 µM (inactive). For the compound `COc1cccc(OC)c1-c1cc(C(=O)NC2(C(=O)O)C3CC4CC(C3)CC2C4)nn1-c1ccnc2cc(Cl)ccc12` (stereo not given), the EC50 entry is “inactive”.

As for `COc1cc2c3nnc(-c4ccc(F)cc4)c-3cn(CC3CC3)c2cc1OC`, the EC50 entry was “inactive”. Turning to `COc1cc2c3nnc(-c4ccc(F)cc4)c-3cn(Cc3ccccn3)c2cc1OC`, the EC50 result was “inactive”.

Consider `COc1cc2c3nnc(-c4ccc(C)cc4)c-3cn(Cc3ccc(C)cc3)c2cc1OC`, for which the EC50 was 6.82 µM.

`CCc1nc(N2CCN(c3ccccc3OC)CC2)c2cc(OC)c(OC)cc2n1`: the EC50 entry was “inactive”. Turning to `COc1cc2c3nnc(-c4ccc(C)cc4)c-3cn(Cc3ccccc3)c2cc1OC`, the EC50 entry is “inactive”. To `COc1cccc(OC)c1-c1nc(C(=O)N[C@@H](CC(C)C)C(=O)O)cn1-c1ccnc2cc(Cl)ccc12` belongs 2.01 µM and 4.14 µM; to `COc1cc2nc(C3CC3)nc(N3CCN(c4ccccc4OC)CC3)c2cc1OC`, 2.18 µM and 1.89 µM. `COc1cc2nc(C3CCC3)nc(N3CCN(c4ccccc4F)CC3)c2cc1OC`: the half-maximal effective concentration (EC50) is 17.7 µM.

For `COc1cc2c3nnc(-c4ccc(C)c(C)c4)c-3cn(Cc3ccccc3)c2cc1OC`, the concentration for a half-maximal effect (EC50) is 6.2 µM. To `COc1cccc(OC)c1-c1nc(C(=O)N[C@@H](CC(C)C)C(=O)O)cn1-c1ccc(C)cc1` belongs > 80 µM (inactive). As for `COc1ccc2c(c1)c1nnc(-c3ccc(F)cc3)c-1cn2Cc1ccccc1`, the figure is 9.24 µM; as for `COc1cc2nc(C3CC3)nc(N3CCN(C(=O)OC(C)(C)C)CC3)c2cc1OC`, “inactive”. Consider `COc1cc2nc(-c3ccccc3)nc(N3CCN(c4ccc(Cl)cc4)CC3)c2cc1OC`, for which the EC50 is > 80 µM (inactive).

On to `COc1ccc2c(c1)c1nnc(-c3ccc(F)cc3)c-1cn2Cc1ccc(C)cc1`, for which the EC50 is > 80 µM (inactive). As for `COc1ccc(-c2nnc3c4cc(OC)c(OC)cc4n(Cc4ccc(C)cc4)cc2-3)cc1`, the figure is 5.21 µM; as for `COc1ccc(-c2nnc3c4ccccc4n(Cc4ccncc4)cc2-3)cc1`, > 80 µM (inactive). To `COc1ccccc1-c1nc(C(=O)N[C@@H](CC(C)C)C(=O)O)cn1-c1ccncc1` belongs > 80 µM (inactive); to `CC(C)C[C@H](NC(=O)c1cn(-c2ccnc3ccccc23)c(-c2ccccc2)n1)C(=O)O`, > 80 µM (inactive).

Regarding `COc1cccc(OC)c1-c1nc(C(=O)N[C@H](CC(C)C)C(=O)O)cn1-c1ccnc2cc(Cl)ccc12`, the EC50 was 9.41 µM. As for `Cc1ccc(Cn2cc3c(-c4ccc(C)cc4)nnc-3c3cc4c(cc32)OCO4)cc1`, the entry is “inactive”; as for `Cc1ccc(-c2nnc3c4cc5c(cc4n(Cc4ccc(F)cc4)cc2-3)OCO5)cc1`, 9.43 µM; as for `COc1cccc(OC)c1-c1cc(C(=O)NC2(C(=O)O)C3CC4CC(C3)CC2C4)nn1-c1ccc(C(=O)N(C)CCCN(C)C)cc1C(C)C` (stereo not given), > 80 µM (inactive). As for `COc1ccccc1N1CCN(c2nc(C3CCC3)nc3cc4c(cc23)OCO4)CC1`, the entry is “inactive”; as for `Cc1ccc(-c2nnc3c4cc5c(cc4n(Cc4ccc(F)cc4)cc2-3)OCO5)cc1C`, “inactive”.

Regarding `COc1cc2nc(CC(C)C)nc(N3CCN(c4ccccc4OC)CC3)c2cc1OC`, the EC50 is 15.1 µM. Turning to `COc1cccc(OC)c1-c1nc(C(=O)N[C@@H](CC(C)C)C(=O)O)cn1-c1cccc2ccccc12`, the EC50 was 2.31 µM and 4.47 µM. To `COc1cccc(OC)c1-c1cc(C(=O)N[C@@H](CC(C)C)C(=O)O)nn1-c1ccnc2cc(Cl)ccc12` belongs 0.232 µM; to `COc1cc2c3nnc(-c4ccc(F)cc4)c-3cn(Cc3ccncc3)c2cc1OC`, 18.4 µM.

The record behind these values is PubChem BioAssay AID602356 (Sanford-Burnham Center for Chemical Genomics, 2012).
